Reference: patent US20050014742A1, “Use of inhibitors of the y2 receptor of neuropeptide y in the treatment of alcoholism” (priority 2001, published 2005)
“Also recorded” adds a separate entry of the source.

Assays:
Format in all cases: in vivo, rat
rats = test: Preliminary dose-finding experiments (sedation); details: dose of 3 nmol i.c.v.
Protocol: […] […] The drug was dissolved in 0.9% NaCl and injected 45 min prior to onset of sessions, in a volume of 10 μl over a period of 2 min interval. The injection cannula was left in place for an additional minute to prevent back flow.

Wistar rats = test: Exploratory locomotor activity after intracerebroventricular administration; details: for Horizontal locomotor activity / Vertical locomotor activity (rearings): 30 min test period, n=6, mean ± SEM
Male Wistar rats = test: Operant ethanol self-administration after intracerebroventricular injection
Protocol: Male Wistar rats (Charles River, Hamburg, Germany), appr. 225 g at start of experiment were used for the experiments from which data are presented. For a replication experiment (see Results), Wistar males of the same age but delivered by Mollegard, Ry, Denmark, were used. Subjects were housed on a reversed light-cycle (lights off 11 am, on 11 pm). Following training for operant responding (see below), surgery was carried out for unilateral cannula implantation. Rats were anaesthetized with ketaminelxylazine (80 mg/kg and 15 mg/kg) and placed in a stereotaxic apparatus (Kopf). Stainless steel guide cannulas (23 gauge, PlasticOne, Roanoke, Va.) aimed at the lateral ventricle were implanted and secured to the skull with stainless screws and dental cement. Final injection coordinates were: A=−0.8, L=±1.4, V=−4.3 from Bregma (15). Animals were allowed to recover for one week, during which time they were only repeatedly handled, in order to reduce the stress of subsequent intracerebroventricular injections. They were then reintroduced to the operant task (see below), and allowed to re-establish their rates of operant responding for two weeks. Finally, the actual Latin-square design was initiated, and carried out over the course of three weeks.
BIIE0246 ([…]; kind gift of Boehringer Ingelheim) or saline was injected i.c.v. via an injection cannula (28-gauge) connected to a 10 μl Hamilton syringe with a low-volume plastic tubing. […] The drug was dissolved in 0.9% NaCl and injected 45 min prior to onset of sessions, in a volume of 10 μl over a period of 2 min interval. The injection cannula was left in place for an additional minute to prevent back flow.
Following completion of training, rats were subjected to surgery, allowed to recover for one week and to stabilize their baseline responding for two weeks, after which a Latin Square design was initiated and carried out over three weeks. During each of these weeks, rats were run Monday-Friday, and drug administration was on Friday. […] In order to retain a balanced design, the analysis presented here includes only those subjects, which completed all treatments. An analysis based on all subjects, with missing values for failed injections, produced a virtually identical result.

[1] = Wistar rats from Mollegard, separate experiment (data not shown)

Horizontal locomotor activity (Wistar rats; 0.3 nmol i.c.v.): 2873.8 ± 572.0
Vertical locomotor activity (rearings) (Wistar rats; 0.3 nmol i.c.v.): 756.8 ± 122.9
Horizontal locomotor activity (Wistar rats; 1.0 nmol i.c.v.): 2630.2 ± 480.0
Vertical locomotor activity (rearings) (Wistar rats; 1.0 nmol i.c.v.): 503.3 ± 113.4
SMILES: N=C(N)NCCC[C@H](NC(=O)CC1(CC(=O)N2CCN(C3c4ccccc4NC(=O)c4ccccc43)CC2)CCCC1)C(=O)NCCn1c(=O)n(-c2ccccc2)n(-c2ccccc2)c1=O (stereo partly drawn) [BIIE0246, (S)—N^2-//1-/2-/4-/(R,S)-5,11-Dihydro-6(6H)-oxodibenz/b,elazepin-11-yl/-1-piperazinyl/-2-oxoethyl/-cyclopentyl/acetyl/-N-/2-/1,2-dihydro-3,5(4H)-dioxo-1,2-diphenyl-3H-1,2,4-triazol-4-yl/-ethyl/-argininamide]
Sedative effect (rats): marked sedative effects
Effect of treatment on horizontal and vertical locomotor activity (Wistar rats; i.c.v., 0.3 and 1.0 nmol, n=6, p=0.74 horizontal, p=0.17 vertical): Neither horisontal (n=6; F[2,15]=0.3; p=0.74) nor vertical activity (F[2,15]=2.0; p=0.17) was affected
Ethanol-reinforced responses over time (cumulative, 5 min intervals) (Male Wistar rats; 1.0 nmol i.c.v., 30 min session, vs saline, Tukey HSD p<0.001): present during min 10-30; also recorded: significantly less during the last 20 but not during the initial 10 min
Reduction of total responding for ethanol (Male Wistar rats; 1.0 nmol i.c.v., 45 min before 30 min session, Wistar rats (Charles River), p<0.05 vs saline and vs 0.3 nmol): ~40%
Responding for ethanol (Male Wistar rats; 1.0 nmol i.c.v., n=13, p=0.013 (FIG. 1A)): significantly reduced
Effect on saccharin solution, replication experiment (Male Wistar rats; [1]): no effect
Suppression of responding for ethanol, replication experiment (Male Wistar rats; [1]): 40%
Total responding for ethanol (overall treatment effect) (Male Wistar rats; i.c.v., 0, 0.3 and 1.0 nmol, one way ANOVA, n=13, p=0.013): significantly reduced
Responding for saccharin (Male Wistar rats; i.c.v., 0.3 and 1.0 nmol, p=0.25, Charles River Wistar rats): unaffected
